Test results published in patent publication US20130029991A1, “New Phenylsulfamoyl Benzamide Derivatives as Bradykinin Antagonists” (priority 2006, published 2013).
Where a name gives a salt, the structure may show the parent alone.

What was measured:
[1] = biological target: T1, recombinant human B1 receptors (Homo sapiens, UniProt P46663); experiment: Functional assay: antagonist potency by cytosolic calcium measurement (fluo-4, plate reader fluorimeter) in CHO-B1 cells; type: cell-based; conditions: CHO-B1 cells, inhibition of LysDABK (EC80)-evoked [Ca2+]i elevation; read-out: B1 func.
T1 construct: host or cells: CHO (CHO-B1)
T1 sequence (P46663 1-353): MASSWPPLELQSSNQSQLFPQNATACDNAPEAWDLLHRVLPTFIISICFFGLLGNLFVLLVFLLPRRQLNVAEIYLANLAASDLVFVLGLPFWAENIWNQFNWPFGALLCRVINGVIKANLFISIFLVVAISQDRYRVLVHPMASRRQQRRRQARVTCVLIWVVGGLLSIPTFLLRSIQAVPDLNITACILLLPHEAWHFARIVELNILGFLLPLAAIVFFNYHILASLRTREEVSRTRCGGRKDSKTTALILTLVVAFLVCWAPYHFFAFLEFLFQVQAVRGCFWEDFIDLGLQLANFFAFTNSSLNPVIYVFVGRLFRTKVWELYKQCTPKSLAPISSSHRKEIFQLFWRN
Experimental: Assessment of Antagonist Potency at B1 and B2 Receptors In Vitro by Measurement of Cytosolic Calcium Ion Concentration with a Plate Reader Fluorimeter in Cells Expressing Recombinant Human B1 or B2 Receptors
Chinese hamster ovary (CHO) cells stably expressing recombinant human B1 (CHO-B1, Euroscreen) or B2 (CHO-B2, Perkin-Elmer) receptors were cultured in Dulbecco's Modified Eagle's Medium (DMEM) containing 10% Fetal Calf Serum (FCS), 100 U/ml penicillin, 0.1 mg/ml streptomycin, 0.25 μg/ml amphotericin B, 1% Minimum Essential Medium Eagle (MEM), non essential amino acid solution, […], 1% pyruvate (for the B2 cell line). Cells were kept at 37° C. in a humidified incubator in an atmosphere of 5% CO2/95% air and were passaged 1:4 three times a week. Cells were plated at 1.5-2.5×10^4 cell/well on standard 96-well microplates, measurements of cytosolic calcium ion concentration ([Ca^2+]i) were carried out 1-2 days after cell plating.
Measurements of [Ca^2+]i were carried out on CHO-B1 and CHO-B2 cells stably expressing human B1 and B2 receptors, respectively. Cells were grown in standard 96-well microplates and before the measurement were loaded with a fluorescent Ca^2+-sensitive dye, fluo-4/AM (2 μM): after removing the culture medium the dye was added to the cells (dissolved in assay buffer: 145 mM NaCl, 5 mM KCl, 2 mM MgCl2, 2 mM CaCl2, 10 mM HEPES, 20 mM D-glucose, 2 mM probenecid, 100 μl/well) and cells were incubated at 37° C. in a humidified incubator in an atmosphere of 5% CO2/95% air for 40-120 min. To stop dye loading cells were washed twice with assay buffer. After washing, various concentrations of the test compounds (diluted in extracellular medium from a DMSO stock solution, final DMSO concentration was <0.1%) or buffer were added to each well depending on the experimental setup. After incubation at 37° C. for 20-25 min. baseline and agonist-evoked changes of [Ca^2+]i were measured column by column with a plate reader fluorimeter (Fluoroskan Ascent, Labsystems). Excitation and detection of emission was carried out from the bottom of the plate. Filters used for Fluo-4: excitation filter—485 nm, emission filter—538 nm. The whole measurement process was performed at 37° C. and was controlled by custom software Inhibitory potency of the test compounds was assessed by measuring the reduction in the agonist-evoked [Ca^2+]i-elevation in the presence of different concentrations of the compounds. The agonists were LysDABK for CHO-B1, and bradykinin for CHO-B2 cells. Agonists were applied at an EC80 concentration, the EC80-values were derived from daily determined dose-response curves. Fluorescence data were expressed as ΔF/F (fluorescence change normalized to baseline). All treatments on a single plate were measured in multiple wells. Data from all wells with the same treatment were averaged and the average values were used for analysis. Inhibitory potency of a compound at a single concentration point was expressed as percent inhibition of the control agonist response. Sigmoidal concentration-inhibition curves were fitted to the data (derived from at least three independent experiments) and IC50-values were determined as the concentration that produces half of the maximal inhibition caused by the compound.

[2] = biological target: T2, human recombinant bradykinin B1 receptor (Homo sapiens, UniProt P46663); experiment: Human recombinant bradykinin B1 receptor binding; conditions: CHO cell membranes, [3H]-[Des-Arg10] Kallidin radioligand; read-out: B1 binding
T2 construct: host or cells: CHO cells
T2 sequence (P46663 1-353): T1 sequence (P46663 1-353)
Experimental: 1. Human Recombinant Bradykinin B1 Receptor Binding
Binding assays were carried out on human recombinant bradykinin) receptors (expressed in CHO cells) according to the Euroscreen Technical Data Sheet (Cat.No.:ES-091). 20 μg protein/tube was incubated with [3,4-prolyl-3,4-^3H(N)]-[Des-Arg^10] Kallidin as radioligand. Non specific binding was determined in the presence of 10 μM Lys-des-Arg^9-Bradykinin. The final incubation volume was 250 μl. Samples were incubated for 15 min. at 25° C. then were rapidly vacuum filtered through GF/B filters presoaked for at least 1 h in 0.5% PEI. Radioactivity was determined by liquid scintillation spectroscopy.

Compound	IC50 [1] [nM]	Ki [2] [nM]
O=C(CNC(=O)c1ccc(S(=O)(=O)Nc2ccccc2Oc2ccc(Br)cc2)cc1)NCC1CCNCC1 [Example 3, 4-[2-(4-Bromo-phenoxy)-phenylsulfamoyl]-N-{[(piperidin-4-ylmethyl)-carbamoyl]-methyl}-benzamide trifluoroacetate]	< 20	< 20
O=C(CNC(=O)c1ccc(S(=O)(=O)Nc2cc(F)ccc2Oc2ccc(Br)cc2)cc1)NCC1CCNCC1 [Example 4, 4-[2-(4-Bromo-phenoxy)-5-fluoro-phenylsulfamoyl]-N-{[(piperidin-4-ylmethyl)-carbamoyl]-methyl}-benzamide trifluoroacetate]	< 20	< 20
O=C(CNC(=O)c1ccc(S(=O)(=O)Nc2ccccc2Oc2ccccc2)cc1)NCC1CCNCC1 [Example 5, 4-(2-Phenoxy-phenylsulfamoyl)-N-{[(piperidin-4-ylmethyl)-carbamoyl]-methyl}-benzamide hydrochloride]	20 to 100	20 to 100
O=C(CNC(=O)c1ccc(S(=O)(=O)Nc2cc(F)ccc2Oc2ccccc2)cc1)NCC1CCNCC1 [Example 7, 4-(5-Fluoro-2-phenoxy-phenylsulfamoyl)-N-{[(piperidin-4-ylmethyl)-carbamoyl]-methyl}-benzamide hydrochloride]	< 20	< 20
O=C(CNC(=O)c1ccc(S(=O)(=O)Nc2ccccc2Oc2ccc(F)cc2)cc1)NCC1CCNCC1 [Example 12, 4-[2-(4-Fluoro-phenoxy)-phenylsulfamoyl]-N-{[(piperidin-4-ylmethyl)-carbamoyl]-methyl}-benzamide hydrochloride]	< 20	< 20
O=C(CNC(=O)c1ccc(S(=O)(=O)Nc2cc(F)ccc2Oc2ccc(F)cc2)cc1)NCCC1CCNCC1 [Example 13, 4-[5-Fluoro-2-(4-fluoro-phenoxy)-phenylsulfamoyl]-N-[(2-piperidin-4-yl-ethylcarbamoyl)-methyl]-benzamide hydrochloride]	< 20	< 20
O=C(CNC(=O)c1ccc(S(=O)(=O)Nc2cc(F)ccc2Oc2ccc(F)cc2)cc1)NCC1CCNCC1 [Example 15, 4-[5-Fluoro-2-(4-fluoro-phenoxy)-phenylsulfamoyl]-N-{[(piperidin-4-ylmethyl)-carbamoyl]-methyl}-benzamide hydrochloride]	< 20	< 20
O=C(CNC(=O)c1ccc(S(=O)(=O)Nc2ccccc2Oc2ccccc2)cc1)NCC(=O)N1CCNCC1 [Example 16, N-[(2-Oxo-2-piperazin-1-yl-ethylcarbamoyl)-methyl]-4-(2-phenoxy-phenylsulfamoyl)-benzamide hydrochloride]	< 20	< 20
O=C(CNC(=O)c1ccc(S(=O)(=O)Nc2ccccc2C(=O)c2ccccc2)cc1)NCC1CCNCC1 [Example 18, 4-(2-Benzoyl-phenylsulfamoyl)-N-{[(piperidin-4-ylmethyl)-carbamoyl]-methyl}-benzamide hydrochloride]	< 20	< 20
CN(C)CC(C)(C)CNC(=O)CNC(=O)c1ccc(S(=O)(=O)Nc2ccccc2Oc2ccc(Cl)cc2Cl)cc1 [Example 35, 4-[2-(2,4-Dichloro-phenoxy)-phenylsulfamoyl]-N-[(3-dimethylamino-2,2-dimethyl-propylcarbamoyl)-methyl]-benzamide]	–	< 20
CN(CCc1ccncc1)C(=O)CNC(=O)c1ccc(S(=O)(=O)Nc2ccccc2Oc2ccc(Cl)cc2Cl)cc1 [Example 43, 4-[2-(2,4-Dichloro-phenoxy)-phenylsulfamoyl]-N-{[methyl-(2-pyridin-4-yl-ethyl)-carbamoyl]-methyl}-benzamide]	–	< 20
N#CCc1ccc(NC(=O)CNC(=O)c2ccc(S(=O)(=O)Nc3ccccc3Oc3ccccc3)cc2)cc1 [Example 73, N-[(4-Cyanomethyl-phenylcarbamoyl)-methyl]-4-(2-phenoxy-phenylsulfamoyl)-benzamide]	–	< 20
O=C(CNC(=O)c1ccc(S(=O)(=O)Nc2ccccc2Nc2ccccc2)cc1)NCC1CCNCC1 [Example 103, 4-(2-Phenylamino-phenylsulfamoyl)-N-{[(piperidin-4-ylmethyl)-carbamoyl]-methyl}-benzamide hydrochloride]	–	< 20

Further lines, results first:

IC50 [1] [nM]	Ki [2] [nM]	Compound
< 20	< 20	O=C(CNC(=O)c1ccc(S(=O)(=O)Nc2ccccc2Oc2ccc(Cl)cc2Cl)cc1)NCC1CCNCC1 [Example 1, 4-[2-(2,4-Dichloro-phenoxy)-phenylsulfamoyl]-N-{[(Piperidin-4-ylmethyl)-carbamoyl]-methyl}-benzamide hydrochloride]
< 20	< 20	O=C(CNC(=O)c1ccc(S(=O)(=O)Nc2ccccc2Oc2ccc(Cl)cc2Cl)cc1)NCCCN1CCCCC1 [Example 2, 4-[2-(2,4-Dichloro-phenoxy)-phenylsulfamoyl]-N-[(3-piperidin-1-yl-propylcarbamoyl)-methyl]-benzamide]
< 20	< 20	O=C(NC(Cc1ccccc1)C(=O)NCC1CCNCC1)c1ccc(S(=O)(=O)Nc2ccccc2Oc2ccc(Cl)cc2Cl)cc1 (stereo not shown) [Example 6, 4-[2-(2,4-Dichloro-phenoxy)-phenylsulfamoyl]-N-{2-phenyl-1-[(piperidin-4-ylmethyl)-carbamoyl]-ethyl}-benzamide hydrochloride]
< 20	< 20	C[C@H](NC(=O)c1ccc(S(=O)(=O)Nc2ccccc2Oc2ccc(Cl)cc2Cl)cc1)C(=O)NCC1CCNCC1 [Example 8, 4-[2-(2,4-Dichloro-phenoxy)-phenylsulfamoyl]-N—{(S)-1-[(piperidin-4-ylmethyl)-carbamoyl]-ethyl}-benzamide hydrochloride]
< 20	< 20	O=C(CNC(=O)c1ccc(S(=O)(=O)Nc2ccccc2Oc2ccccc2)cc1)NCCC1CCNCC1 [Example 10, 4-(2-Phenoxy-phenylsulfamoyl)-N-[(2-piperidin-4-yl-ethylcarbamoyl)-methyl]-benzamide hydrochloride]
20 to 100	20 to 100	COc1ccc(NS(=O)(=O)c2ccc(C(=O)NCC(=O)NCC3CCNCC3)cc2)c(Oc2ccc(Cl)cc2Cl)c1 [Example 11, 4-[2-(2,4-Dichloro-phenoxy)-4-methoxy-phenylsulfamoyl]-N-{[(piperidin-4-ylmethyl)-carbamoyl]-methyl}-benzamide hydrochloride]
< 20	< 20	N=C(N)N1CCC(CNC(=O)CNC(=O)c2ccc(S(=O)(=O)Nc3ccccc3Oc3ccc(Cl)cc3Cl)cc2)CC1 [Example 14, N-{[(1-Carbamimidoyl-piperidin-4-ylmethyl)-carbamoyl]-methyl}-4-[2-(2,4-dichloro-phenoxy)-phenylsulfamoyl]-benzamide hydrochloride]
–	< 20	O=C(CNC(=O)c1ccc(S(=O)(=O)Nc2ccccc2Oc2ccc(Cl)cc2Cl)cc1)NCCCCC1CCNCC1 [Example 59, 4-[2-(2,4-Dichloro-phenoxy)-phenylsulfamoyl]-N-[(4-piperidin-4-yl-butylcarbamoyl)-methyl]-benzamide hydrochloride]
